Measured values from PubChem BioAssay (NCI).
Converted amounts (≈) assume the structure as drawn.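 Compound exposure: 48 hours, 5 concentrations, 96-well plates. At the GI50, growth is halved. TGI denotes the concentration required for complete inhibition of growth.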

What was measured:
Test in all cases: NCI tumour cell line growth inhibition, 48 h
P388 leukemia = tested on: P388 leukemia
XF 498 CNS = tested on: XF 498 CNS
UACC-62 melanoma = tested on: UACC-62 melanoma
DMS 273 small cell lung = tested on: DMS 273 small cell lung
SNB-78 CNS = tested on: SNB-78 CNS
PC-3 prostate = tested on: PC-3 prostate
HS 578T breast = tested on: HS 578T breast
T-47D breast = tested on: T-47D breast
TK-10 renal = tested on: TK-10 renal
DU-145 prostate = tested on: DU-145 prostate
MDA-N = tested on: MDA-N
BT-549 breast = tested on: BT-549 breast
LXFL 529 NSCLC = tested on: LXFL 529 NSCLC
RXF-631 renal = tested on: RXF-631 renal

SMILES | TGI (P388 leukemia) [µM] | TGI (XF 498 CNS) [µM] | TGI (UACC-62 melanoma) [µM] | TGI (DMS 273 small cell lung) [µM] | TGI (SNB-78 CNS) [µM] | TGI (TK-10 renal) | TGI (DU-145 prostate) | also measured
Cc1cc(O)c2c(c1)C(=O)c1c(c(O)cc(O)c1-c1c(O)cc(O)c3c1C(=O)c1cc(C)cc(O)c1C3=O)C2=O | 63 | 53.4 | 25.4 | 30.3 | 105 |  |  | 
CC1(C)OCC(CO)(CO)CO1 |  |  |  |  |  | > 100 µM | > 100 µM | TGI (PC-3 prostate): > 100 µM; TGI (HS 578T breast): > 100 µM; TGI (T-47D breast): > 100 µM; TGI (MDA-N): > 100 µM
Cc1nc2nc(C)n(CCN3CCOCC3)c(=O)c2c(-c2cccc([N+](=O)[O-])c2)c1C(=O)CCCCCCCCCCN1CCC(c2ccccc2)(c2ccccc2)CC1 |  |  |  |  |  | 4.45 µg/mL | 4.56 µg/mL | GI50 (TK-10 renal): 2.41 µg/mL (≈ 2.96 µM); GI50 (BT-549 breast): 2.33 µg/mL (≈ 2.87 µM); TGI (BT-549 breast): 4.48 µg/mL; GI50 (DU-145 prostate): 2.51 µg/mL (≈ 3.09 µM)
ICC1CCCO1 (stereo not given) |  | > 100 |  | > 100 | > 100 | > 100 µM |  | TGI (LXFL 529 NSCLC): > 100 µM; TGI (RXF-631 renal): > 100 µM
CCOP(=O)(C/C=C/Cn1ncc(=O)[nH]c1=O)OCC |  |  |  |  |  | > 100 µM | > 100 µM | TGI (PC-3 prostate): > 100 µM; TGI (HS 578T breast): > 100 µM; TGI (T-47D breast): > 100 µM; TGI (BT-549 breast): > 100 µM; TGI (MDA-N): > 100 µM
O=C=C=P(c1ccccc1)(c1ccccc1)c1ccccc1 |  | 89.7 |  | > 100 | > 100 |  |  | TGI (LXFL 529 NSCLC): > 100 µM; TGI (RXF-631 renal): > 100 µM
CC(C)c1oc(=O)cc2c1C(O)C1OC(=O)C3(C)C(O)C4OC4C2(C)C13 (stereo not given) | 1.23 | 1.95 | 7.44 | 5.93 | 52 |  |  | 
C=C1CC(OC)(C(OC)C(=O)N[C@H]2OCO[C@H]3C2O[C@H](C[C@@H](COC)OC)C(C)(C)C3OC)O[C@H](C)[C@@H]1C (stereo not given in full) | 0.691 | 2.54 | 3.72 | 3.79 | 4.81 |  |  | 
